According to PubChem BioAssay (NCI):
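Here, GI50 denotes the concentration required for 50% inhibition of growth. Definition used: TGI = concentration required for complete inhibition of growth.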

How the values were obtained:
Assay in all cases: NCI-60 cell line screen, 384-well format
HL-60(TB) leukemia = system: HL-60(TB) leukemia
UACC-257 melanoma = system: UACC-257 melanoma
RPMI-8226 leukemia = system: RPMI-8226 leukemia
SNB-75 CNS = system: SNB-75 CNS
MALME-3M melanoma = system: MALME-3M melanoma
HOP-92 NSCLC = system: HOP-92 NSCLC
SK-MEL-2 melanoma = system: SK-MEL-2 melanoma
SN12C renal = system: SN12C renal
HS 578T breast = system: HS 578T breast
NCI-H522 lung = system: NCI-H522 lung
T-47D breast = system: T-47D breast
MDA-MB-231 breast = system: MDA-MB-231 breast
SF-268 CNS = system: SF-268 CNS
SF-539 CNS = system: SF-539 CNS
UACC-62 melanoma = system: UACC-62 melanoma
A549 NSCLC = system: A549 NSCLC
KM12 colon = system: KM12 colon
OVCAR-4 ovarian = system: OVCAR-4 ovarian
SR leukemia = system: SR leukemia
PC-3 prostate = system: PC-3 prostate
SK-MEL-5 melanoma = system: SK-MEL-5 melanoma
CAKI-1 renal = system: CAKI-1 renal
RXF 393 renal = system: RXF 393 renal
786-0 renal = system: 786-0 renal
NCI-H226 lung = system: NCI-H226 lung
BT-549 breast = system: BT-549 breast
DU-145 prostate = system: DU-145 prostate
LOX IMVI melanoma = system: LOX IMVI melanoma
OVCAR-8 ovarian = system: OVCAR-8 ovarian
COLO 205 colon = system: COLO 205 colon
UO-31 renal = system: UO-31 renal
MOLT-4 leukemia = system: MOLT-4 leukemia
MDA-MB-468 breast = system: MDA-MB-468 breast
MDA-MB-435 melanoma = system: MDA-MB-435 melanoma
A498 renal = system: A498 renal
SF-295 CNS = system: SF-295 CNS
NCI-H322M lung = system: NCI-H322M lung
NCI-H23 lung = system: NCI-H23 lung
HOP-62 NSCLC = system: HOP-62 NSCLC
ACHN renal = system: ACHN renal
K-562 leukemia = system: K-562 leukemia
U251 glioblastoma = system: U251 glioblastoma
SK-OV-3 ovarian = system: SK-OV-3 ovarian
MCF7 breast = system: MCF7 breast
TK-10 renal = system: TK-10 renal
HT29 colon = system: HT29 colon
NCI-H460 NSCLC = system: NCI-H460 NSCLC

## Cc1cc(Nc2ccc(NC(=O)c3ccc(Nc4ccnc5ccccc45)cc3)cc2)nc(N)n1
HL-60(TB) leukemia
  GI50: 603 nM
  TGI: 1060 nM
UACC-257 melanoma
  GI50: 556 nM
  TGI: 1560 nM
RPMI-8226 leukemia
  GI50: 3110 nM
  TGI: 7870 nM
SNB-75 CNS
  GI50: 2400 nM
  TGI: 4700 nM
MALME-3M melanoma
  GI50: 1000 nM
  TGI: 2230 nM
HOP-92 NSCLC
  GI50: 539 nM
  TGI: 1520 nM
SK-MEL-2 melanoma
  GI50: 199 nM
  TGI: 386 nM
SN12C renal
  GI50: 1220 nM
  TGI: 2480 nM
HS 578T breast
  GI50: 1050 nM
  TGI: 2240 nM
NCI-H522 lung
  GI50: 217 nM
  TGI: 410 nM
T-47D breast
  GI50: 192 nM
  TGI: 334 nM
MDA-MB-231 breast
  GI50: 275 nM
  TGI: 737 nM
SF-268 CNS
  GI50: 732 nM
  TGI: 1820 nM
SF-539 CNS
  GI50: 552 nM
  TGI: 1020 nM
UACC-62 melanoma
  GI50: 719 nM
  TGI: 1940 nM
A549 NSCLC
  GI50: 1870 nM
  TGI: 3400 nM
KM12 colon
  GI50: 193 nM
  TGI: 355 nM
OVCAR-4 ovarian
  GI50: 521 nM
  TGI: 957 nM
SR leukemia
  GI50: 172 nM
  TGI: 313 nM
PC-3 prostate
  GI50: 894 nM
  TGI: 2250 nM
SK-MEL-5 melanoma
  GI50: 1340 nM
  TGI: 2630 nM
CAKI-1 renal
  GI50: 2960 nM
  TGI: 8450 nM
RXF 393 renal
  GI50: 750 nM
  TGI: 1840 nM
786-0 renal
  GI50: 872 nM
  TGI: 2240 nM
NCI-H226 lung
  GI50: 625 nM
  TGI: 1210 nM
BT-549 breast
  GI50: 490 nM
  TGI: 1120 nM
DU-145 prostate
  GI50: 1600 nM
  TGI: 2980 nM
LOX IMVI melanoma
  GI50: 166 nM
  TGI: 308 nM
OVCAR-8 ovarian
  GI50: 831 nM
  TGI: 2100 nM
COLO 205 colon
  GI50: 206 nM
  TGI: 352 nM
UO-31 renal
  GI50: 33800 nM
  TGI: > 100000 nM
MOLT-4 leukemia
  GI50: 203 nM
  TGI: 347 nM
MDA-MB-468 breast
  GI50: 196 nM
  TGI: 339 nM
MDA-MB-435 melanoma
  GI50: 1850 nM
  TGI: 3260 nM
A498 renal
  GI50: 1500 nM
  TGI: 2890 nM
SF-295 CNS
  GI50: 3160 nM
  TGI: 8990 nM
NCI-H322M lung
  GI50: 418 nM
  TGI: 1260 nM
NCI-H23 lung
  GI50: 1010 nM
  TGI: 2840 nM
HOP-62 NSCLC
  GI50: 695 nM
  TGI: 1840 nM
ACHN renal
  GI50: 11200 nM
  TGI: 31000 nM
K-562 leukemia
  GI50: 324 nM
  TGI: 921 nM
U251 glioblastoma
  GI50: 195 nM
  TGI: 340 nM
SK-OV-3 ovarian
  GI50: 917 nM
  TGI: 2250 nM
MCF7 breast
  GI50: 254 nM
  TGI: 618 nM
TK-10 renal
  GI50: 5630 nM
  TGI: 17500 nM
HT29 colon
  GI50: 319 nM
  TGI: 815 nM
NCI-H460 NSCLC
  GI50: 1670 nM
  TGI: 3150 nM
